According to patent US8426438B2, “Heterocyclic-fused pyrazolo[4,3-c]pyridin-3-one M1 receptor positive allosteric modulators” (Merck Sharp & Dohme Corp., priority 2009, dated 2013):

target: T1, acetylcholine muscarinic M1 receptor (CHOnfat/hM1 cells) (Homo sapiens, UniProt P11229); test: muscarinic FLIPR intracellular calcium assay for M1 positive allosteric modulator activity (acetylcholine EC20); assay type: cell-based; conditions: 4 min preincubation, then EC20 acetylcholine (3 nM final), read-out: IP Value (inflection point)
T1 construct: expressed in transfected cells; host or cells: CHOnfat cells (CHO, Geneticin selection)
T1 sequence (P11229 1-460): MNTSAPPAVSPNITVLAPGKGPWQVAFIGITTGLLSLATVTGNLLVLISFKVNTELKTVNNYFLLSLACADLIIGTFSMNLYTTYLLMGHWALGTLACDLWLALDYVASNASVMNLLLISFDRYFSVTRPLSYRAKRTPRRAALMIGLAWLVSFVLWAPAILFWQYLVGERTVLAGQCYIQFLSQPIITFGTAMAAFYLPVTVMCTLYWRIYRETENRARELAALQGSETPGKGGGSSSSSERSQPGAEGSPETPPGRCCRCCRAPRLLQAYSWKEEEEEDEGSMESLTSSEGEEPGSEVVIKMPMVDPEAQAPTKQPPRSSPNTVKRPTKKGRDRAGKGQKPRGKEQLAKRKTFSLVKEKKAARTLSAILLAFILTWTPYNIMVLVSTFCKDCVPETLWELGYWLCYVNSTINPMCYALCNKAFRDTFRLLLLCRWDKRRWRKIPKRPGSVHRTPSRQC
Description: The assay studies the effect of one or several concentrations of test compounds on basal or acetylcholine-stimulated Ca^2+ levels using FLIPR.
Compounds are prepared and subjected to a preincubation period of 4 min. Thereafter, a single EC20 concentration of acetylcholine is added to each well (3 nM final). The intracellular Ca^2+ level of each sample is measured and compared to an acetylcholine control to determine any modulatory activity.
CHOnfat/hM1, hM2, hM3 or hM4 cells are plated 24 hr before the assay at a density of 18,000 cells/well (100 up in a 384 well plate. CHOnfat/hM1 and CHOnfat/hM3 Growth Medium: 90% DMEM (Hi Glucose); 10% HI FBS; 2 mM L-glutamine; 0.1 mM NEAA; Pen-Strep; and 1 mg/ml Geneticin, are added. For M2Gqi5CHOnfat and M4Gqi5CHOnfat cells, an additional 600 μg/ml hygrornycin is added.
384 well plate, 120 μL addition plate; 96-well Whatman 2 ml Uniplate Incubator, 37° C., 5% CO2; Skatron EMBLA-384 Plate Washer; Multimek Pipetting System; Genesis Freedom 200 System; Mosquito System; Temo Nanolitre Pipetting System; and FLIPR^384 Fluorometric Imaging Plate Reader System are used.
Assay Buffer: Hanks Balanced Salt Solution, with 20 mM Hepes, 2.5 mM Probenecid (Sigma P-8761) first dissolved in 1 N NaOH, 1% Bovine Serum Albumin (Sigma A-9647). Dye Loading Buffer: Assay Buffer plus 1% Fetal Bovine Serum and Fluo-4AM/Pluronic Acid Mixture. 2 mM Fluo-4AM ester stock in DMSO (Molecular Probes F-14202) Concentration of 2 μM in buffer for a final concentration of 1 μM in Assay. 20% Pluronic Acid Solution stock, with concentration of 0.04% in Buffer, 0.02% in Assay.
65 μL of 2 mM Fluo-4AM are mixed with 130 μL of 20% Pluronic Acid. The resulting solution and 650 μL FBS is added to the assay buffer for a total volume of 65 mL. Positive Controls: 4-Br-A23187: 10 mM in DMSO; final concentration 10 μM. Acetylcholine: 10 mM in water, working stock at both 20 μM and 30 μM in assay buffer, final concentration of 10 μM. This is used to check the maximum stimulation of the CHOK1/hM1 cells. 20 μM (2×) acetylcholine is added in the preincubation part of the assay, and the 30 μM (3×) stock is added in the second part. (EC20) Acetylcholine: 10 mM in water, working stock of 9 nM (3×), and final concentration in assay is 3 nM. This is used after the preincubation with test compounds. Addition of the EC20 Acetylcholine to each well with a test compound will ascertain any modulator activity. 24 wells contain 3 nM Acetylcholine alone as a control.
Compounds are titrated in 96-well plates (columns 2-11), 100% DMSO, started at a concentration of 15 mM (150× stock concentration), and 3-fold serial dilutions using Genesis Freedom200 System. Four 96-well plates are combined into a 384-well plate using Mosquito Nanolitre Pipetting System by transferring 1 μl of serial diluted compounds to each well, and 1 mM acetylcholine (100× stock concentration) were added as a control. Using Temo, 49 μl assay buffer is added to each well of the 384-well plate right before assay.
In a 96-well Whatman 2 ml Uniplate, 9 nM Acetylcholine (3×) is pipetted into wells corresponding to the screening compounds, and into control wells. The 30 μM acetylcholine control (3×) is added into control wells, and the 3× agonist plate is transferred into a 384 well plate.
Cells are washed three times with 100 μL of buffer, leaving […] of buffer in each well. Using Multimek, 30 μL of Dye Loading Buffer is added into each well and incubated at 37° C., 5% CO2 for up to one hr.
After 60 min, the cells are washed three times with 100 μL of buffer, leaving 30 μL of buffer in each well. The cell plate, screening plate, and agonist addition plates are placed on the platform in the FLIPR and the door closed. A signal test to check background fluorescence and basal fluorescence signal is performed. Laser intensity is adjusted if necessary. […]

EC50	Compound
1300 nM	O=c1c2cn(Cc3ccc(-n4cccn4)cc3)c3c(c-2nn1-c1ccccc1F)C(O)CCC3 (racemic) [Example 11, (±)-2-(2-Fluorophenyl)-9-hydroxy-5-{[4-(1H-pyrazol-1-yl)phenyl]methyl}-2,5,6,7,8,9-hexahydro-3H-pyrazolo[4,3-c]quinolin-3-one]
7670 nM	O=c1c2cn(Cc3ccc(-n4cccn4)cc3)c3cnccc3c-2nn1-c1ccccc1F [Example 4, 2-(2-Fluorophenyl)-5-{[4-(1H-pyrazol-1-yl)phenyl]methyl}-2,5-dihydro-3H-pyrazolo[4,3-c]-1,7-naphthyridin-3-one]
770 nM	O=c1c2cn(Cc3ccc(-n4cccn4)cc3)c3c(c-2nn1-c1ccccc1F)CCC3 [Example 8, 2-(2-Fluorophenyl)-5-{[4-(1H-pyrazol-1-yl)phenyl]methyl}-5,6,7,8-tetrahydrocyclopenta[b]pyrazolo[3,4-d]pyridine-3(2H)-one]
360 nM	O=c1c2cn(Cc3ccc(-n4cccn4)cc3)c3c(c-2nn1-c1ccccc1F)CCCC3 [Example 9, 2-(2-Fluorophenyl)-5-{[4-(1H-pyrazol-1-yl)phenyl]methyl}-2,5,6,7,8,9-hexahydro-3H-pyrazolo[3,4-d]pyridine-3(2H)-one]
20 nM	O=c1c2cn(Cc3ccc(-n4cccn4)cc3)c3ccsc3c-2nn1-c1ccccc1F [Example 12, 2-(2-Fluorophenyl)-5-{[4-(1H-pyrazol-1-yl)phenyl]methyl}-2,5-dihydro-3H-pyrazolo[4,3-d]thieno[3,2-b]pyridin-3-one]

Further lines, the compound ahead of its results:

Compound	EC50
O=c1c2cn(Cc3ccc(-n4cccn4)cc3)c3cccnc3c-2nn1-c1ccccc1F [Example 1, 2-(2-Fluorophenyl)-5-{[4-(1H-pyrazol-1-yl)phenyl]methyl}-2,5-dihydro-3H-pyrazolo[4,3-c]-1,5-naphthyridin-3-one]	160 nM
O=c1c2cn(Cc3ccc(-n4cccn4)cc3)c3ncccc3c-2nn1-c1ccccc1F [Example 2, 2-(2-Fluorophenyl)-5-{[4-(1H-pyrazol-1-yl)phenyl]methyl}-2,5-dihydro-3H-pyrazolo[4,3-c]-1,8-naphthyridin-3-one]	318 nM
Cc1ccccc1-n1nc2c3nccnc3n(Cc3ccc(-n4cccn4)cc3)cc-2c1=O [Example 6, 2-(2-Methylphenyl)-5-{[4-(1H-pyrazol-1-yl)phenyl]methyl}-2,5-dihydro-3H-pyrazolo[3′,4′:4,5]-pyrido[2,3-b]pyrazin-3-one]	759 nM
Cc1ccccc1-n1nc2c3sccc3n(Cc3ccc(-n4cccn4)cc3)cc-2c1=O [Example 13, 2-(2-Methylphenyl)-5-{[4-(1H-pyrazol-1-yl)phenyl]methyl}-2,5-dihydro-3H-pyrazolo[3,4-d]thieno[3,2-b]pyridin-3-one]	108 nM
O=c1c2cn(Cc3ccc(-n4cccn4)cc3)c3ccsc3c-2nn1-c1c(Cl)cncc1Cl [Example 15, 2-(3,5-Dichloropyridin-4-yl)-5-{[4-(1H-pyrazol-1-yl)phenyl]methyl}-2,5-dihydro-3H-pyrazolo[3,4-d]thieno[3,2-b]pyridin-3-one]	65 nM
